Laboratory results as given in patent US9994536B2, “Compounds and methods of treating neurological disorders” (TORREY PINES INSTITUTE FOR MOLECULAR STUDIES, priority 2014, dated 2018).
Values belong to the compound of their own block, whether it stands above or below them.

Legend:
TrkA = TrkA (Homo sapiens, UniProt P04629); assay: Table of THPI-244 analogs: TrkA increase
[1] = tested on: soluble APPα, soluble APPβ, Aβ; assay: APP processing blots after SAHA, NT2 cells; assay type: cell-based, human
Text: We utilized a commercially available AlphaLISA detection kit to develop an HTS assay for identification of compounds that increase sAPPα production in CHO cells stably expressing APP751 (7WD10 cells) (FIG. 2.1B). There are several cell lines that have been used extensively in Alzheimer's disease research. For example, NT2 cells are highly used in AD basic and drug discovery research because they are derived from a human embryonal carcinoma cell line and they can be differentiated into post-mitotic neuron-like cells that develop functional dendrites and axons resembling primary neurons of the human brain [39]. NT2 cells also synthesize amyloid precursor protein important in Alzheimer's disease. However, the rate of growth of NT2 cells is much slower than rate of growth of 7WD10s cells, which makes them less HTS-amenable. We have analyzed both 7WD10 and NT2 cells for expression of the hallmark proteins of Alzheimer's disease: soluble APPα, soluble APPβ, Arβ, and membrane-bound full length APP (APP-FL). […] Since it was shown that broad HDAC inhibition results in a decrease of AR and an increase of soluble APPα [41] we tested both cell lines for the effect of application of SAHA (suberoylanilide hydroxamic acid or vorinostat), a pan-HDAC inhibitor [42].

[2] = tested on: soluble APPα, soluble APPβ, Aβ; assay: APP processing blots after SAHA, 7WD10 cells; assay type: cell-based
Protocol: (§1) Western blot sAPPα release assay. 7WD10 cells were grown in 6-well plates and treated with test compounds and SAHA (vorinostat) at several concentrations in duplicate wells. After 24 h of drug exposure, the conditioned media (CM) was collected, centrifuged to remove cell debris and subjected to SDS-PAGE electrophoresis. sAPPα (6E10, mouse IgG from IBL America ltd) was detected using indicated antibody. To detect APP-FL holoprotein and C-terminal fragments (CTFs, CT15 antibody), the cells were lysed using lysis buffer (1% NP40) with complete protease inhibitor mix (Sigma) supplemented with sodium vanadate and microcystine. Samples were subjected to SDS-PAGE, transferred and immunoblotted with indicated antibodies and detected by enhanced chemiluminescence method. Quantification of Western blot signals was done using ImageJ software.
We utilized a commercially available AlphaLISA detection kit to develop an HTS assay for identification of compounds that increase sAPPα production in CHO cells stably expressing APP751 (7WD10 cells) (FIG. 2.1B). There are several cell lines that have been used extensively in Alzheimer's disease research. […] We have analyzed both 7WD10 and NT2 cells for expression of the hallmark proteins of Alzheimer's disease: soluble APPα, soluble APPβ, Arβ, and membrane-bound full length APP (APP-FL). […]

[3] = tested on: sAPPα released from 7WD10 cells (CHO cells stably expressing APP751); assay: AlphaLISA sAPPα release assay (pilot HTS); assay type: cell-based
Protocol: (1). The pilot screen was performed using five 384 well plates. […] FDA approved oncology set was screened at 10 μM final assay concentration, while thiazole derivatives were screened at 5 μM. Seven hits from thiazole derivatives were identified using Ave+3SD rule (45) as a nominal cutoff for hit determination (FIG. 1.1 (bottom)). The hits represented a novel piperazine thiazole chemotype (FIG. 1.2).
Pilot screen of AlphaLISA sAPPα release assay. 8 μL of assay media (DMEM supplemented with 10% FBS and 1× Penicillin/Streptomycin) containing 20,000 cells were added to all wells of the assay plate, except column 1 where only media was added. Plates were incubated for 4 h at 37° C., 5% CO2, 95% RH after which 80 nL of test compounds in DMSO or DMSO alone were added to respective wells using a pin tool device (VP Scientific, San Diego). After 24 h of incubation at 37° C., 5% CO2, 95% RH, sAPPα AlphaLISA beads were added in 10 μL of buffer, equilibrated for 1 h, and AlphaLISA signal was measured using a Biotek H4 Synergy microplate reader (Biotek Inc). Three parameters were calculated on a per-plate basis: (a) the signal-to-background ratio (S/B); (b) the coefficient for variation [CV; CV=(standard deviation/mean)×100)] for all compound test wells; and (c) the Z′-factor [31]. Nominally active compounds from the pilot screen were determined using mean plus 3 times the standard deviation (Mean+3SD) was used as the cut-off.
In the absence of known pharmacological agents capable of inducing an increase of sAPPα release, we tested a small molecule (FIG. 2.4A insert, compound 1 in [2]) shown to decrease Aβ release. It was shown that decrease of Aβ release could be accompanied by the increase of soluble APPα, which has a neuroprotective effect. Compound 1 was tested using 20,000 cells/well in the range of 1.2-100 μM using 3-fold serial dilutions and 24 h incubation as an assay endpoint. Increase of sAPPα release was observed only in wells where 100 μM of compound 1 was added either with or without FBS (FIG. 2.4A). Viability of cells was also tested in the presence of 1.2-100 μM of compound 1 to ascertain that the increase of sAPPα release is not due to excessive cell death. Consistent with the above described results, cells were less viable in the absence of FBS. In the presence of 1.2-33 μM of compound 1, cells were approximately 10% less viable than untreated control either with or without FBS (FIG. 2.4B).
To evaluate the ability of the assay to identify compounds that increase the release of sAPPα a pilot screen was conducted using FDA approved oncology set (n=101) and TPIMS heterocycles library (n=700). The pilot screen was performed using five 384 well plates. […]

[4] = tested on: sAPPα in supernatants of 7WD10 cells; assay: Western blot sAPPα release assay, 7WD10 cells; assay type: cell-based; conditions: 10 nM, 7WD10 supernatant
Protocol: (2). To ascertain that hits identified as a result of AlphaLISA assay are not due to artifacts of the detection system, the sAPPα levels were measured by Western blots as a secondary assay downstream of primary HTS to confirm hits or discard artifacts of the AlphaLISA assay. The assay was performed using a range of concentrations of hit compounds (10-5,000 nM). A hit compound named thiazole piperazine #244 (THPI-244) and THPI-326 induced dose-dependent increase of sAPPα in supernatants of 7WD10 cells (FIG. 1.3). […] Since compound THPI-244 increased sAPPα levels more than THPI-326, we focused on THPI-244 for further validation.
as §1, with “To detect APP-FL holoprotein and C-terminal fragments (CTFs, CT15 antibody), the cells were lysed using lysis buffer (1% NP40) with complete protease inhibitor mix (Sigma) supplemented with sodium vanadate and microcystine.” left out

human sAPPα = assay: sAPPα release ELISA, 7WD10 cells; assay type: cell-based; conditions: 24 h
Protocol: Starting from p-methylbenzhydrylamine hydrochloride (MBHA.HCl) resin; we developed different approaches toward the diversity oriented solid-phase parallel synthesis of different aminothiazole compounds 1-6 (Scheme 1) (Micheals, H A et al., 2014, ACS Comb. Sci. 16, 1-4; Nefzi, A et al., 2010, J. Org. Chem. 75, 7939-7941). 575 thiazole compounds were synthesized and were tested for sAPPα increasing activity using CHO cells stably expressing APP751wt. For initial screenings we used a cell-based human sAPPα ELISA kit (cat #27734, IBL Co., ltd, Japan) following instructions from the manufacturer. The method involves sandwich ELISA and use of two specific antibodies and tetra methyl benzidine as a coloring agent. […]
sAPPα and Aβ40 release ELISA assay. […] The principle of the method is based on the use of tetra methyl benzidine (TMB) as a chromogen and the strength of the generated color is proportional to the quantities of human sAPPα. […] Plates were incubated with chromogen solution for 30 minutes, and read at 450 nm after adding stop solution. Levels of Aβ40 in the CM treated with different concentrations of compound 1 as detailed above were measured by sandwich ELISA exactly as described previously. Aβ40 was captured with Ab9 antibody (epitope, 1-16 of Aβ40) and detected with horseradish peroxidase-conjugated Ab13.1.1 antibody (epitope, 35-40 of Aβ40).

Aβ42 = Aβ42 ELISA, NT2 stable cells; assay type: cell-based, human
Protocol: (§2) (5). To confirm the effect of THPI-244 on sAPPα levels in a neuronal cell line and by a tertiary assay, we exposed human Neuron-committed Teratocarcinoma cell line (NT2) stably expressing human APP751 to different concentrations of THPI-244 for 24 h and compared with that of Bryostatin, a classical activator of PKC known to stimulate sAPPα release. […] Levels of sAPPα were measured by ELISA using commercially available kit (cat #27734, IBL-America, Minneapolis, Minn., USA). […] Similar biphasic effect of Bryostatin was confirmed for Aβ42 also, measured again in NT2 stable cells by ELISA (cat #KHB3441, Life Technologies, Grand Island, N.Y., USA). Consistent with sAPPα, THPI-244 decreased Aβ42 levels dose-dependently starting from 50 nM (28%, p<0.05) to 2000 nM (64%, p<0.001) (n=4 independent experiments) (FIG. 1.7). Thus THPI-244 increased non-amyloidogenic processing of APP in NT2 cells.

sAPPα [5] = assay: sAPPα ELISA, fibroblasts derived from AD patients; assay type: cell-based, human; conditions: 24 h
Protocol: (1). […] Therefore, we first used fibroblasts derived from AD patients (AG06263C, Coriell Cell repository, supported by NINDS/NIH) and exposed to THPI-244 for 24 h and measured sAPPα release by ELISA as done above for NT2 cells. […] We also confirmed dose-dependent effect of THPI-244 on sAPPα levels in human primary neurons transiently transfected with APP751 with Swedish mutation which is trafficked differently from WT APP and releases more sAPPα. Human neurons were grown on specially coated glass coverslips (cat #GG-18-PDL, NeuVitro, Germany). We could reproducibly achieve nearly 30% transfection efficiency using a nanoparticle based transfection reagent called Neuromag (cat #NM150299, OZ Biosciences, France).

sAPPα [6] = assay: sAPPα ELISA, NT2 cells stably expressing APP751; assay type: cell-based, human; conditions: 24 h
Protocol: as §2

Chain of TrkA (P04629 33-796, species assumed): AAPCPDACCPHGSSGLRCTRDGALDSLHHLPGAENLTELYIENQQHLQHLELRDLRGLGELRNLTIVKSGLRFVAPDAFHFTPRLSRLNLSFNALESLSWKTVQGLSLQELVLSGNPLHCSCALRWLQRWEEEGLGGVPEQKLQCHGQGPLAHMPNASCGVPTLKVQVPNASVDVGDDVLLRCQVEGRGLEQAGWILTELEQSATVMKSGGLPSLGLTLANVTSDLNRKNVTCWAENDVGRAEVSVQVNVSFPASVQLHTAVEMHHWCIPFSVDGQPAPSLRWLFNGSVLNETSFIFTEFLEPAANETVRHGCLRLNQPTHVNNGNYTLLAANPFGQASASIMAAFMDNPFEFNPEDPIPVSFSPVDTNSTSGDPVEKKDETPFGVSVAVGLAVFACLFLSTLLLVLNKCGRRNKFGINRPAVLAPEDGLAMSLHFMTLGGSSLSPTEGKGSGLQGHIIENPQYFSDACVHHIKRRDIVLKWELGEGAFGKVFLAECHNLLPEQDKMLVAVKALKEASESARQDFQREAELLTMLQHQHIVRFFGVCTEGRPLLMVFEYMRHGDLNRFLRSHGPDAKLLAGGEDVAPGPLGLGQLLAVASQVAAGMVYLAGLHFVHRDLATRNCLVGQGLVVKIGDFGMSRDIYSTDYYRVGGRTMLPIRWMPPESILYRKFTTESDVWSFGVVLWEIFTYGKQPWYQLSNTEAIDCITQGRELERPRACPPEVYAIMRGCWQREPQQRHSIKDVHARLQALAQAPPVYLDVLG

- % TrkA ⬆ (TrkA): 69%
SMILES: Cc1cnc(C(=O)N[C@H](CNc2nc(CN3CCNCC3)cs2)c2ccccc2)cn1 [TPI-2336-55]

SMILES: O=C(CCCCCCC(=O)Nc1ccccc1)NO [SAHA, suberoylanilide hydroxamic acid]
- change of Aβ [1]: decrease
- change of Aβ [2]: decrease

SMILES: CCC(C)C(=O)N1CCN(Cc2csc(NC[C@H](Cc3ccc(O)cc3)NC(=O)Cc3ccccc3)n2)CC1 (stereo partly drawn) [THPI-326]
- increase of Alpha signal (sAPPα release) ([3]; 5 μM, 7WD10 cells, 24 h): ~2 fold
- increase of sAPPα over untreated control cells (Western blot) [4]: 2 fold

- % TrkA ⬆ (TrkA): 51%
SMILES: c1ccc(CCNc2nc(CN3CCOCC3)cs2)cc1 [TPI-2336-99]

SMILES: O=C(NCCSCc1cccc(Cl)c1)c1c(Cl)cccc1Cl [compound 1, 2,6-dichloro-N-{2-[(3-chlorobenzyl)thio]ethyl}benzamide, reference compound]
- increase of sAPPα over untreated control cells (ELISA) (human sAPPα; 100 μM): 2 fold
- maximal increase of sAPPα (ELISA) (human sAPPα; 150 μM): 3 fold
- increase of AlphaLISA signal ([3]; 100 μM compound 1): 2 fold
- concentration at which increase of sAPPα release was observed ([3]; range 1.2-100 μM, 24 h, with or without FBS): 100 µM

SMILES: CCC/C=C/C=C/C(=O)O[C@H]1/C(=C/C(=O)OC)C[C@H]2C[C@H]([C@@H](C)O)OC(=O)C[C@H](O)C[C@@H]3C[C@H](OC(C)=O)C(C)(C)[C@](O)(C[C@@H]4C/C(=C/C(=O)OC)C[C@H](/C=C/C(C)(C)[C@]1(O)O2)O4)O3 [Bryostatin, reference compound]
- lowest concentration with significant decrease of Aβ42 (Aβ42): 10 nM
- lowest concentration with significant increase of sAPPα (sAPPα [5]): 10 nM
- effect on sAPPα release (sAPPα [6]): increased sAPPα at low nM concentrations, but then decreased levels dose-dependently
- lowest concentration with significant increase of sAPPα (sAPPα [6]): 10 nM

- % TrkA ⬆ (TrkA): 54%
SMILES: c1ccc(CCNc2nc(CN3CCCCC3)cs2)cc1 [TPI-2336-100]
